In patent US8175371B2, “Method for imaging and differential analysis of cells” (Amnis Corporation, priority 2004, dated 2012):

Test system: Jurkat cells
Assay: Annexin V / 7-AAD staining of treated Jurkat cells, evaluated by flow cytometry and fluorescence microscopy
Format: cell-based, Human
Details: Jurkat T cells, Alexa Fluor 488 annexin V and 7-AAD
Description: Human acute T leukemic Jurkat cell line was obtained from ATCC (Rockville, Md.; catalog number CRL-1990) and maintained in RPMI 1640 (Gibco, Grand Island, N.Y.) containing 5% fetal bovine serum, 1 mM sodium pyruvate (Mediatech, Herndon, Va.), 100 µM nonessential amino acids, 100 U/ml penicillin, 100 µg/ml streptomycin, and 2 mM L-glutamine (BioWhittaker, Walkersville, Md.) in 5% CO2 atmosphere at 37 degrees C. The density of exponentially growing cells was less than 3×10^5 cells per ml at the time of all treatments. To induce apoptosis, cells were treated for 18 hours with 1 µM camptothecin (CPT, Sigma), a DNA topoisomerase I inhibitor. […]
Control (untreated) cell, CPT treated (apoptotic) cells, and peroxide treated (necrotic) cells were independently counted and washed once in phosphate buffered saline (PBS, Fair Lawn, N.J.). […] Each cell group was washed in annexin V Binding Buffer, fixed in 2% paraformaldehyde (Sigma), and analyzed as either single populations or as a mixture by flow cytometry and immunofluorescence microscopy.
For flow cytometry, cell fluorescence data excited by a 488 nm laser were acquired using the FACSort™ cytometer (BD Immunocytometry Systems, San Jose, Calif.) and analyzed using CellQuest™ (BD Immunocytometry Systems). […]

Row | SMILES | annexin V / 7-AAD staining of treated cells (necrosis induction) (0.3% hydrogen peroxide for 1 hour, FIG. 2C) | annexin V / 7-AAD staining of treated cells (apoptosis induction) (1 µM CPT for 18 hours, FIG. 2B)
1 | OO [peroxide, hydrogen peroxide] | stained positively with both annexin V and 7-AAD | 
2 | CC[C@@]1(O)C(=O)OCc2c1cc1n(c2=O)Cc2cc3ccccc3nc2-1 [CPT, camptothecin] |  | two populations of cells, those that were annexin V^+ (single positive, SP, or early apoptotic cells), and those that were annexin V^+, 7-AAD^+ (double positive, DP, or late apoptotic cells)
